Here are results for 12 compounds from patent publication EP0800503B1, “NOVEL TRIENOIC RETINOID COMPOUNDS AND METHODS” (LIGAND PHARMACEUTICALS, INC., priority 1994, dated 1996).

By IC50 is commonly meant the concentration that gives 50% inhibition. The low end stands for greater potency, the high end for weaker potency. For orientation: IC80 means the point of the concentration-response curve where the effect stands at 80%. Low values mean an effect from little substance, high ones a need for much substance.

Where two headings read alike, the source gives them in different places.

What all share (type): cell-based
The test system of one experiment is ME 180 cell line. The experiment in a line: Viability (tetrazolium dye, MTS). The note with it: Homo sapiens, 96 hours, mitochondrial function / viability.
Another experiment concerns RPMI 8226 cell line. The experiment in a line: Viability (tetrazolium dye, MTS). The note with it: Homo sapiens, 96 hours, mitochondrial function / viability.
The test system of another experiment is AML-193 cell line. The experiment in a line: Viability (tetrazolium dye, MTS). The note with it: Homo sapiens, 96 hours, mitochondrial function / viability.
The next experiment addresses T1, RXRα (Homo sapiens, UniProt P19793).
T1 sequence (P19793 1-462): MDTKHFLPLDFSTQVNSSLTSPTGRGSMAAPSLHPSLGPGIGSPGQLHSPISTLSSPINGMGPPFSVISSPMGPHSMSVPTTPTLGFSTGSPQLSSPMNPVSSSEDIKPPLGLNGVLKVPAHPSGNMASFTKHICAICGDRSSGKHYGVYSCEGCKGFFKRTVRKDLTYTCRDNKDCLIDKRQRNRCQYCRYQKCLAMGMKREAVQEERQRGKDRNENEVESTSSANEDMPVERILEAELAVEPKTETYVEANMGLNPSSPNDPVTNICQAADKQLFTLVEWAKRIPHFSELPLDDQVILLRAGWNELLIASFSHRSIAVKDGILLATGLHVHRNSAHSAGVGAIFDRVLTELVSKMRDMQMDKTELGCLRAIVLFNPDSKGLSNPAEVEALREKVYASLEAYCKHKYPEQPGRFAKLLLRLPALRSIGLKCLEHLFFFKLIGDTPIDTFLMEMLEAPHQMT
The experiment in a line: Co-transfection assay. The note with it: read-out: RXRα Pot.

A further experiment deals with T2, RXRγ (Mus musculus, UniProt P28705).
T2 sequence (P28705 1-463): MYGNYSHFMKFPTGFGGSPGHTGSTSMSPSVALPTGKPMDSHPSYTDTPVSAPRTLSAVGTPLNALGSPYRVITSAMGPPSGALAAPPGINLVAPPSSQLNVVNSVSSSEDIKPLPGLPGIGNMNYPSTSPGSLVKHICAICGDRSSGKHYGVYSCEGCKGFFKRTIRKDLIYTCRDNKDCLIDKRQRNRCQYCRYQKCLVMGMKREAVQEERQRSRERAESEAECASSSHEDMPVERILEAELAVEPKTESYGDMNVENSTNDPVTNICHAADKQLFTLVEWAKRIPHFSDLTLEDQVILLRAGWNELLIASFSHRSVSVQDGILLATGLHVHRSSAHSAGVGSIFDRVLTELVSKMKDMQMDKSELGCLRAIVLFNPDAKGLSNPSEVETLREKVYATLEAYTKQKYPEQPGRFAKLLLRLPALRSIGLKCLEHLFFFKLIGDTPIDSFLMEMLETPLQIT
The experiment in a line: Co-transfection assay. The conditions noted are these: read-out: RXRγ Pot.

A further experiment addresses T3, RXRβ (Mus musculus, UniProt P28704).
T3 sequence (P28704 1-520): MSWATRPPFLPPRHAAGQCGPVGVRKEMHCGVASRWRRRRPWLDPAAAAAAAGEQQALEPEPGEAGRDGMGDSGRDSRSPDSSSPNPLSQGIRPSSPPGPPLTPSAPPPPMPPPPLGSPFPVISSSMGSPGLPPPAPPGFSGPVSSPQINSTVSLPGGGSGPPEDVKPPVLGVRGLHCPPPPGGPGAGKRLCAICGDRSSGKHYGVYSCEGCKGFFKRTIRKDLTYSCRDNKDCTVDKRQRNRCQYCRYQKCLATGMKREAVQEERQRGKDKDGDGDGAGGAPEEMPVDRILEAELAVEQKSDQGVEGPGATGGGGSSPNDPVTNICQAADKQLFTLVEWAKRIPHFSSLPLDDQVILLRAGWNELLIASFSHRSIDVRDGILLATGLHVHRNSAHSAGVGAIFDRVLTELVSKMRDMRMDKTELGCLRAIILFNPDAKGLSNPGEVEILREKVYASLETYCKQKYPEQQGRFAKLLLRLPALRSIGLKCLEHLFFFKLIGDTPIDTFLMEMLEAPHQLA
The experiment in a line: Co-transfection assay. The conditions noted are these: read-out: RXRβ Pot.

The next experiment addresses T4, RARγ (Homo sapiens, UniProt P13631).
T4 sequence (P13631 1-454): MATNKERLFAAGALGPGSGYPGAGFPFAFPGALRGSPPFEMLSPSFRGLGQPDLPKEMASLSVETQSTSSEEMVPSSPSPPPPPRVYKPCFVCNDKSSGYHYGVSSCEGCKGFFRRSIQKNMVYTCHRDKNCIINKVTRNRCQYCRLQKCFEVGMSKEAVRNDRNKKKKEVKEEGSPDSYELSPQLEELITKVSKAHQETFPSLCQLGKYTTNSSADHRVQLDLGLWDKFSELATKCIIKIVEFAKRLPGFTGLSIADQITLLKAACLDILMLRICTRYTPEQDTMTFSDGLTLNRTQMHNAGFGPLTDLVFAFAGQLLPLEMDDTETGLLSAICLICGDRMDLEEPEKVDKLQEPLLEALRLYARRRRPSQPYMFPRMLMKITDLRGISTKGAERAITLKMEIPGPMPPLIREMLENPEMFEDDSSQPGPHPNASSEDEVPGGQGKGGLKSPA
The experiment in a line: Co-transfection assay. The conditions noted are these: read-out: RARγ Pot.

A further experiment addresses T5, RARα (Homo sapiens, UniProt P10276).
T5 sequence (P10276 1-462): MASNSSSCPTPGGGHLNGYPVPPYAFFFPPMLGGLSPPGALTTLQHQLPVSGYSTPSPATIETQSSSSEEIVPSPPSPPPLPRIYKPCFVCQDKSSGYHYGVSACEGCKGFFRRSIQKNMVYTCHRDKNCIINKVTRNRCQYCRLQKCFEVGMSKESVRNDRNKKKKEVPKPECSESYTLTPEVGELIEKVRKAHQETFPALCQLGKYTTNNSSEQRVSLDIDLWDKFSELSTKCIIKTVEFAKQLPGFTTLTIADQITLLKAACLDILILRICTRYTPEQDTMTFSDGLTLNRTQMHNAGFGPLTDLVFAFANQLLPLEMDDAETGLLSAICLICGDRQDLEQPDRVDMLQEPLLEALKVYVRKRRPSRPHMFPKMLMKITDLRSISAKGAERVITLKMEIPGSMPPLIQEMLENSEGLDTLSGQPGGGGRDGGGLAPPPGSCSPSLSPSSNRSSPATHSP
The experiment in a line: Co-transfection assay. The conditions noted are these: read-out: RARα Pot.

The target in a further experiment is T6, RARβ (Homo sapiens, UniProt P10826).
T6 sequence (P10826 1-448 isoform P10826-2): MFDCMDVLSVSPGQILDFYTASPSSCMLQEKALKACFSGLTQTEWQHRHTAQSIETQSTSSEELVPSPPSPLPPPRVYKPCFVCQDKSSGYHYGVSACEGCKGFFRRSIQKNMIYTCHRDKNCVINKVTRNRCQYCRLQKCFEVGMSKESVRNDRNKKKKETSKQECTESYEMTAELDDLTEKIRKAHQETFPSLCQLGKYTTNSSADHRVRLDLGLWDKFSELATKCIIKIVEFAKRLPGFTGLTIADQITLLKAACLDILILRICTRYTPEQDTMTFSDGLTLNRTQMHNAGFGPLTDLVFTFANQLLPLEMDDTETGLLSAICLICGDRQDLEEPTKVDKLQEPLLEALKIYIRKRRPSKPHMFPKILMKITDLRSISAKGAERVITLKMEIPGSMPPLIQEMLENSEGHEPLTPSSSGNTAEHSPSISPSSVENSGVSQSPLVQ
The experiment in a line: Co-transfection assay. The conditions noted are these: read-out: RARβ Pot.

Another experiment deals with TPA induction of ODC. The experiment in a line: Ornithine decarboxylase (ODC) assay, inhibition of TPA induction of ODC. The conditions noted are these: concentration required to inhibit the TPA induction of ODC by 80 percent.

With `CC1=C(/C=C/C(C)=C/C=C/C(C)=C/C(=O)O)C(C)(C)CCC1` [ATRA, all-trans retinoic acid, reference compound], the IC50 with ME 180 cell line is 890 nM; in the experiment on RPMI 8226 cell line, 756 nM; with AML-193 cell line it was 1000 nM.
Turning to `COc1ccc(/C(C)=C/C=C/C(C)=C/C(=O)O)cc1` [B, (2E,4E,6E)-3-methyl-7-(4-methoxyphenyl)octa-2,4,6-trienoic acid, reference compound], the EC50 on RXRα, at RXRγ, at RXRβ, at RARγ, at RARα and at RARβ was over 10000 nM each time.
For the compound `COc1cc(C)c(/C=C/C=C/C=C(\C)C(=O)O)c(C)c1C` [C, (2E,4E,6E)-2-methyl-7-(2,3,6-trimethyl-4-methoxyphenyl)hepta-2,4,6-trienoic acid, reference compound], the EC50 on RXRα, at RXRγ, on RXRβ, on RARγ, on RARα and on RARβ was over 10000 nM throughout.
In turn, `CCOC(=O)/C=C(C)/C=C/C=C(\C)c1cc(C(C)(C)C)cc(C(C)(C)C)c1` [Compound 7, Ethyl (2E, 4E, 6E)-7-(3,5-di-t-butylphenyl)-3-methylocta-2,4,6-trienoate] had an IC80 with TPA induction of ODC of 4.73 nM.
The same measure, in the same setting: the result for `CCOC(=O)/C=C(C)/C=C/C=C(/C)c1cc(C(C)(C)C)cc(C(C)(C)C)c1` [Compound 8, Ethyl (2E,4E, 6Z)-7-(3,5-di-t-butylphenyl)-3-methylocta-2,4,6-trienoate] reads 152 nM.
As for `CCC/C(=C/C=C/C(C)=C/C(=O)O)c1cc(C(C)(C)C)cc(C(C)(C)C)c1` [Compound 28, (2E, 4E, 6Z)-7-(3,5-di-t-butylphenyl)-3-methyldeca-2,4,6-trienoic acid], the EC50 is 20 nM on RXRα; 50 nM on RXRγ; 104 nM at RXRβ; over 10000 nM on RARγ; over 10000 nM on RARα; over 10000 nM at RARβ.
`CC(/C=C/C=C1\CCOc2c1cc(C(C)(C)C)cc2C(C)(C)C)=C\C(=O)O` [Compound 39, (2E,4E,6E)-6-(6,8,-Di-t-butylchroman-4-ylidene)-3-methylhexa-2,4,6-trienoic acid]: the EC50 at RXRα is over 10000 nM; on RXRγ it was over 10000 nM; on RXRβ, over 10000 nM; on RARγ it was 3 nM; at RARα it was 5 nM; on RARβ it was 3 nM.
As for `CC(/C=C/C=C(\C)c1cc(C(F)(F)F)cc(C(F)(F)F)c1)=C\C(=O)O` [Compound 41, (2E, 4E, 6E)-7-(3,5-Di-trifluoromethylphenyl)-3-methylocta-2,4,6-trienoic acid], the EC50 on RXRα is 2010 nM; at RXRγ, 2180 nM; at RXRβ it was 266 nM; at RARγ, 4 nM; on RARα, 3 nM; at RARβ it was 1 nM.
As for `C/C(=C/C=C/C(C)=C/C(=O)O)c1cc(C(C)C)cc(C(C)C)c1` [Compound 43, (2E, 4E, 6Z)-7-(3,5-Di-isopropylphenyl)-3-methylocta-2,4,6-trienoic acid], the EC50 at RXRα was found to be 27 nM; on RXRγ, 19 nM; on RXRβ, 27 nM; at RARγ, 16 nM; on RARα, 65 nM; on RARβ, 22 nM.
With `COc1c(C(C)(C)C)cc(/C(C)=C/C=C/C(C)=C/C(=O)O)cc1C(C)(C)C` [Compound 47, (2E, 4E, 6E) -3-Methyl-7-(3,5-di-t-butyl-4-methoxyphenyl)octa-2,4,6-trienoic acid], the EC50 at RXRα is over 10000 nM; at RXRγ it was over 10000 nM; at RXRβ, over 10000 nM; on RARγ, 1 nM; on RARα, over 10000 nM; at RARβ it was 1 nM.
For the compound `COC(/C=C/C=C(\C)c1ccc(C(C)(C)C)cc1)=C/C(=O)O` [D, (2E,4E,6E)-3-methoxy-7-(4-t-butylphenyl)octa-2,4,6-trienoic acid, reference compound], the EC50 at RXRα, at RXRγ, at RXRβ, on RARγ, at RARα and on RARβ was over 10000 nM throughout.
For the compound “(2E,4E,6Z)-3-Methyl-7-(3,4-diethyl-6-methylphenyl)nona-2,4,6-trienoic acid [Compound 54]”, the EC50 was 58 nM at RXRα (CV-1 cells, pRShRXRα, CRBPIIFKLUC reporter, 40 hours, potency = EC50); 78 nM on RXRγ (CV-1 cells, pRSmRXRγ, CRBPIIFKLUC reporter, 40 hours, potency = EC50); 28 nM on RXRβ (CV-1 cells, pRSmRXRβ, CRBPIIFKLUC reporter, 40 hours, potency = EC50); 320 nM at RARγ (CV-1 cells, pRShRARγ, D-MTV-LUC reporter, 40 hours, potency = EC50); over 10000 nM at RARα (CV-1 cells, pRShRARα, D-MTV-LUC reporter, 40 hours, potency = EC50); 130 nM on RARβ (CV-1 cells, pRShRARβ, D-MTV-LUC reporter, 40 hours, potency = EC50).
